Data published in publication PMC11220790 (Molecular Pharmaceutics, 2024).
≈ marks a conversion by molar mass, not a printed value. Like-named read-outs stand apart in the source and are kept apart here.

How the values were obtained:
[1] = Photostability in aqueous media (DTIC degradation / 2-AZA formation kinetics); type: physicochemical; conditions: for kg, photogeneration rate constant for 2-AZA: 5 mM solution, phosphate buffer pH 6.8, UV irradiation 5 h
Description: The mobile phase consisted of a mixture of 0.1% (v/v) aqueous formic acid solution (A) and acetonitrile (B), in a gradient elution mode (0.0–2.5 min: 0% B; 2.5–4.0 min: 0–6% B; 4.0–5.0 min: 6–0% B; and 5.0–7.0 min: 0% B), delivered at a flow rate of 0.8 mL min^–1. […] The method validation followed the ICH Q2 (R2) guideline.[31] The parameters selectivity, linearity, precision, accuracy, and limits of quantitation and detection were evaluated.
A triplicate of freshly prepared solutions at a concentration of 5 mM has been placed into clear glass vials and arranged at 30 cm from a black UV lamp (300 mm, 15 W) to be photoirradiated for 5 h.

[2] = Intrinsic dissolution, rotating disk apparatus; type: physicochemical; conditions: for IDR (intrinsic dissolution rate) pH 6.8: phosphate buffer pH 6.8, 37.0 ± 0.5 °C, 100 rpm
Description: Intrinsic dissolution tests were carried out in triplicate using a rotating disk dissolution apparatus. […] The attachments containing the disks were immersed into 500 mL of phosphate buffer, pH 6.8, medium preheated at 37.0 ± 0.5 °C with the metallic rod rotating at 100 rpm.

[3] = Solid-state photodegradation test (black UV lamp chamber); conditions: for stability, % 2-AZA found / stability, % DTIC found: after 15 days in photostability chamber
[4] = Solid-state stability under accelerated degradation conditions (40 °C, 75% RH)
[5] = Thermal analysis (DSC and TG); type: physicochemical
Description: Thermogravimetric (TG) experiments were performed on a Shimadzu DTG-60 thermobalance, placing approximately 2.0 ± 0.2 mg of each sample in alumina pans and then heating at 10 °C min^–1 under a nitrogen flow (50 mL min^–1) from 25 to 600 °C. Differential scanning calorimetry (DSC) curves were obtained using a Shimadzu DSC-60 instrument. The samples (1.0 ± 0.2 mg) were placed in aluminum pans and heated at a constant rate of 10 °C min^–1 under a nitrogen flow (50 mL min^–1). According to TG data, the DSC measurements have been conducted until the degradation temperature of each compound. Shimadzu TA-60 software was employed in the data analysis.

[6] = pKa and ΔpKa between DTIC and coformers; conditions: between DTIC and the coformer, Table S4
[7] = weak base; cited from earlier work
[8] = physchem; conditions: 37 °C, thermodynamic from solid
[9] = freshly prepared (initial) solid sample
[10] = solid, after 90 days at 40 °C and 75% RH

SMILES | kg, photogeneration rate constant for 2-AZA [1] [mM h^–1] | increase of IDR compared to DTIC ([2]; phosphate buffer pH 6.8) | IDR (intrinsic dissolution rate) pH 6.8 [2] [mg cm^–2 min^–1] | stability, % 2-AZA found [3] [%] | stability, % DTIC found [3] [%] | stability, % DTIC found [4, 9] [%] | stability, % DTIC found [4, 10] [%] | Tonset of DSC exothermic degradation peak [5] [°C] | decomposition temperature (DSC exothermic degradation peak) [5] [°C] | TG: thermally stable up to / mass loss begins at ([5]; 10 °C min^–1, nitrogen flow) | Tonset of TG mass loss ([5]; 10 °C min^–1, nitrogen flow) [°C] | ΔpKa (pKa(base) − pKa(acid)) [6] | pKa [7] | photodegradation in solution under UV radiation (in words) ([1]; low-pH and diluted solutions) | solubility at 24 h ([8]; HCl solution, pH 1.2, simulated gastric fluid) [mg/mL] | solubility at 24 h ([8]; acetate buffer, pH 4.5, aqueous buffer) [mg/mL] | reduction in the drug content during the photostability test ([3]; 15 days UV exposure) [%] | Tonset of DSC exothermic degradation peak ([5]; 10 °C min^–1, nitrogen flow) [°C] | decomposition temperature (DSC exothermic degradation peak) ([5]; 10 °C min^–1, nitrogen flow) [°C] | IDR compared with DTIC (in words) ([2]; phosphate buffer pH 6.8)
CN(C)N=Nc1nc[nH]c1C(N)=O.O=C(O)/C=C/C(=O)O [DTIC-H2FUM, Dacarbazine-Fumaric Acid Cocrystal] | 0.363 ± 0.02 | ~5.1 fold | 1.31 ± 0.05 | 1.1 ± 0.1 | 97.3 ± 0.2 | 99.5 ± 0.3 | 99.2 ± 0.2 | 172.1 | 178.1 | around 163 °C | 159.4 |  |  |  |  |  |  |  |  | 
O=C(O)/C=C/C(=O)O [Fumaric acid] |  |  |  |  |  |  |  |  |  |  |  | 1.4 |  |  |  |  |  |  |  | 
CN(C)N=Nc1[nH]cnc1C(N)=O.O=C(O)C(=O)O [DTIC-HOXA, Dacarbazine Hydrogen-Oxalate Salt] | 0.386 ± 0.03 | 22 fold | 5.58 ± 0.08 | 2.2 ± 0.4 | 97.1 ± 0.3 | 100.1 ± 0.1 | 99.9 ± 0.2 | 170.2 | 175.0 | around 166 °C | 161.7 |  |  |  |  |  |  |  |  | 
CN(C)N=Nc1[nH]cnc1C(N)=O.O=C(O)C=CC(=O)O [DTIC-HMAL, Dacarbazine Hydrogen-Maleate Salt] | 0.371 ± 0.02 | approximately 7.3 fold | 1.90 ± 0.06 | 1.7 ± 0.2 | 98.4 ± 0.2 | 99.6 ± 0.4 | 98.2 ± 0.4 |  |  |  |  |  |  |  |  |  |  |  |  | 
CN(C)/N=N/c1[nH]cnc1C(N)=O [DTIC, Dacarbazine, reference compound] | 0.361 ± 0.04 |  | 0.26 ± 0.02 |  | 94.4 ± 0.5 | 100.0 ± 0.2 | 99.8 ± 0.3 |  |  | 208 °C | 206.5 |  | 4.4 | Complete and rapid photodegradation | 20.4 ± 0.2 (≈ 112 mM) | 3.4 ± 0.2 (≈ 18.7 mM) | 5.6 | 210.8 | 215.5 | 
O=C(O)/C=C\C(=O)O [Maleic acid] |  |  |  |  |  |  |  |  |  |  |  | 2.5 |  |  |  |  |  |  |  | 
CN(C)N=Nc1nc[nH]c1C(N)=O.CN(C)N=Nc1nc[nH]c1C(N)=O.O.O.O.O.O=C(O)CC(O)(CC(=O)O)C(=O)O [DTIC-HCIT, Dacarbazine Hydrogen-Citrate Salt-Cocrystal] | 0.338 ± 0.03 |  | 0.35 ± 0.01 | 1.8 ± 0.2 | 97.0 ± 0.4 | 99.8 ± 0.4 | 96.0 ± 0.5 |  |  |  |  |  |  |  |  |  |  |  |  | equivalent to those of DTIC
